Results published in PubChem BioAssay (NCI).
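Briefly, cells in 96-well plates were exposed to five compound concentrations for 48 h, and endpoints were estimated by linear interpolation. The concentration for full growth arrest is given as TGI.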

Legend:
Assay in all cases: NCI-60 cell line screen, 48 h
786-0 renal = test system: 786-0 renal
A498 renal = test system: A498 renal
A549 NSCLC = test system: A549 NSCLC
ACHN renal = test system: ACHN renal
BT-549 breast = test system: BT-549 breast
CAKI-1 renal = test system: CAKI-1 renal
CCRF-CEM leukemia = test system: CCRF-CEM leukemia
COLO 205 colon = test system: COLO 205 colon
DU-145 prostate = test system: DU-145 prostate
EKVX NSCLC = test system: EKVX NSCLC
HCC-2998 colon = test system: HCC-2998 colon
HCT-116 colon = test system: HCT-116 colon
HCT-15 colon = test system: HCT-15 colon
HL-60(TB) leukemia = test system: HL-60(TB) leukemia
HOP-62 NSCLC = test system: HOP-62 NSCLC
HOP-92 NSCLC = test system: HOP-92 NSCLC
HS 578T breast = test system: HS 578T breast
HT29 colon = test system: HT29 colon
IGROV1 ovarian = test system: IGROV1 ovarian
K-562 leukemia = test system: K-562 leukemia
KM12 colon = test system: KM12 colon
LOX IMVI melanoma = test system: LOX IMVI melanoma
M14 melanoma = test system: M14 melanoma
MALME-3M melanoma = test system: MALME-3M melanoma
MCF7 breast = test system: MCF7 breast
MDA-MB-435 = test system: MDA-MB-435
MDA-N = test system: MDA-N
MOLT-4 leukemia = test system: MOLT-4 leukemia
NCI-H226 lung = test system: NCI-H226 lung
NCI-H23 lung = test system: NCI-H23 lung
NCI-H460 lung = test system: NCI-H460 lung
NCI-H522 lung = test system: NCI-H522 lung
NCI/ADR-RES ovarian = test system: NCI/ADR-RES ovarian
OVCAR-3 ovarian = test system: OVCAR-3 ovarian
OVCAR-4 ovarian = test system: OVCAR-4 ovarian
OVCAR-5 ovarian = test system: OVCAR-5 ovarian
OVCAR-8 ovarian = test system: OVCAR-8 ovarian
RXF 393 renal = test system: RXF 393 renal
SF-268 CNS = test system: SF-268 CNS
SF-295 CNS = test system: SF-295 CNS
SF-539 CNS = test system: SF-539 CNS
SK-MEL-28 melanoma = test system: SK-MEL-28 melanoma
SK-MEL-5 melanoma = test system: SK-MEL-5 melanoma
SK-OV-3 ovarian = test system: SK-OV-3 ovarian
SN12C renal = test system: SN12C renal
SNB-19 CNS = test system: SNB-19 CNS
SNB-75 CNS = test system: SNB-75 CNS
SR leukemia = test system: SR leukemia
SW-620 colon = test system: SW-620 colon
T-47D breast = test system: T-47D breast
UACC-257 melanoma = test system: UACC-257 melanoma
UACC-62 melanoma = test system: UACC-62 melanoma
UO-31 renal = test system: UO-31 renal
MDA-MB-231 breast = test system: MDA-MB-231 breast
PC-3 prostate = test system: PC-3 prostate
SK-MEL-2 melanoma = test system: SK-MEL-2 melanoma
TK-10 renal = test system: TK-10 renal
U251 CNS = test system: U251 CNS

In the case of COc1cc(/C=C2\N=C(c3ccccc3)N(c3cc4cc(Sc5ccccc5)ccc4[nH]3)C2=O)cc(OC)c1OC, the TGI (786-0 renal) is reported as 26 µM, the TGI (A498 renal) is reported as 42.9 µM and the TGI (A549 NSCLC) is reported as greater than 75 µM. It also gave a TGI (ACHN renal) greater than 75 µM, a TGI (BT-549 breast) of 31.6 µM and a TGI (CAKI-1 renal) greater than 75 µM. It also gave a TGI (CCRF-CEM leukemia) of 51.7 µM, a TGI (COLO 205 colon) of 21.3 µM and a TGI (DU-145 prostate) of 37.9 µM. It also gave a TGI (EKVX NSCLC) of 67.5 µM, a TGI (HCC-2998 colon) of 22.9 µM and a TGI (HCT-116 colon) of 23.9 µM. For the same compound, the TGI (HCT-15 colon) was 50.2 µM, the TGI (HL-60(TB) leukemia) was 31.9 µM and the TGI (HOP-62 NSCLC) was 41.2 µM. The TGI (HOP-92 NSCLC) was 29.8 µM, the TGI (HS 578T breast) was greater than 75 µM and the TGI (HT29 colon) was 44.8 µM. For the same compound, the TGI (IGROV1 ovarian) was greater than 75 µM, the TGI (K-562 leukemia) was 17.9 µM and the TGI (KM12 colon) was 56.8 µM. The TGI (LOX IMVI melanoma) was 22.2 µM, the TGI (M14 melanoma) was 22.8 µM and the TGI (MALME-3M melanoma) was 11.1 µM. For the same compound, the TGI (MCF7 breast) was 25.1 µM, the TGI (MDA-MB-435) was 31 µM and the TGI (MDA-N) was 15.9 µM. The TGI (MOLT-4 leukemia) was 26.9 µM, the TGI (NCI-H226 lung) was 28.9 µM and the TGI (NCI-H23 lung) was greater than 75 µM. For the same compound, the TGI (NCI-H460 lung) was 35.2 µM, the TGI (NCI-H522 lung) was 12.9 µM and the TGI (NCI/ADR-RES ovarian) was 59.1 µM. The TGI (OVCAR-3 ovarian) was 60.1 µM, the TGI (OVCAR-4 ovarian) was greater than 75 µM and the TGI (OVCAR-5 ovarian) was greater than 75 µM. It also gave a TGI (OVCAR-8 ovarian) of 41.5 µM, a TGI (RXF 393 renal) of 26.8 µM and a TGI (SF-268 CNS) of 18.2 µM. For the same compound, the TGI (SF-295 CNS) was 73.2 µM, the TGI (SF-539 CNS) was 24.6 µM and the TGI (SK-MEL-28 melanoma) was 35.8 µM. It also gave a TGI (SK-MEL-5 melanoma) of 20.4 µM, a TGI (SK-OV-3 ovarian) greater than 75 µM and a TGI (SN12C renal) of 52.6 µM. The TGI (SNB-19 CNS) was greater than 75 µM, the TGI (SNB-75 CNS) was 56.2 µM and the TGI (SR leukemia) was 12.3 µM. It also gave a TGI (SW-620 colon) of 68 µM, a TGI (T-47D breast) of 34.2 µM and a TGI (UACC-257 melanoma) of 40.3 µM. The TGI (UACC-62 melanoma) was 24.5 µM and the TGI (UO-31 renal) was 48.9 µM.

CC(=O)c1c(SCCN2CCCCCC2)n(-c2ccccc2)c(=S)n(-c2ccccc2)c1=O gave a TGI (786-0 renal) of 3.36 µM, a TGI (A498 renal) of 28.7 µM and a TGI (A549 NSCLC) of 15.2 µM. The TGI (ACHN renal) was 3.31 µM, the TGI (BT-549 breast) was 32.7 µM and the TGI (CAKI-1 renal) was 8.26 µM. The TGI (CCRF-CEM leukemia) was 1.24 µM, the TGI (COLO 205 colon) was 3.67 µM and the TGI (DU-145 prostate) was 5.18 µM. It also gave a TGI (EKVX NSCLC) of 40.4 µM, a TGI (HCC-2998 colon) of 14.6 µM and a TGI (HCT-116 colon) of 18.5 µM. For the same compound, the TGI (HCT-15 colon) was 33.7 µM, the TGI (HOP-62 NSCLC) was greater than 56.4 µM and the TGI (HOP-92 NSCLC) was 20.1 µM. For the same compound, the TGI (HS 578T breast) was 64.1 µM, the TGI (HT29 colon) was 20.7 µM and the TGI (IGROV1 ovarian) was 22.7 µM. It also gave a TGI (K-562 leukemia) of 10.9 µM, a TGI (KM12 colon) greater than 54.1 µM and a TGI (LOX IMVI melanoma) of 12.5 µM. For the same compound, the TGI (M14 melanoma) was 4.9 µM, the TGI (MALME-3M melanoma) was 3.51 µM and the TGI (MDA-MB-231 breast) was 28.1 µM. For the same compound, the TGI (MDA-MB-435) was 25.5 µM, the TGI (MDA-N) was 20.3 µM and the TGI (NCI-H226 lung) was 61.3 µM. The TGI (NCI-H23 lung) was 38.2 µM, the TGI (NCI-H460 lung) was greater than 54.4 µM and the TGI (NCI-H522 lung) was 2.95 µM. The TGI (NCI/ADR-RES ovarian) was greater than 100 µM, the TGI (OVCAR-3 ovarian) was 12 µM and the TGI (OVCAR-4 ovarian) was 79.3 µM. For the same compound, the TGI (OVCAR-5 ovarian) was greater than 69 µM, the TGI (OVCAR-8 ovarian) was 24.4 µM and the TGI (PC-3 prostate) was 14.2 µM. It also gave a TGI (RXF 393 renal) of 3.41 µM, a TGI (SF-268 CNS) of 26.3 µM and a TGI (SF-295 CNS) greater than 100 µM. The TGI (SF-539 CNS) was 13.1 µM, the TGI (SK-MEL-2 melanoma) was 43.2 µM and the TGI (SK-MEL-28 melanoma) was 23.4 µM. For the same compound, the TGI (SK-MEL-5 melanoma) was 22.2 µM, the TGI (SK-OV-3 ovarian) was greater than 100 µM and the TGI (SN12C renal) was 19.5 µM. For the same compound, the TGI (SNB-19 CNS) was greater than 100 µM, the TGI (SNB-75 CNS) was 32.8 µM and the TGI (SR leukemia) was 8.58 µM. For the same compound, the TGI (SW-620 colon) was 4.96 µM, the TGI (T-47D breast) was 7.36 µM and the TGI (TK-10 renal) was 4.45 µM. For the same compound, the TGI (U251 CNS) was 32.5 µM, the TGI (UACC-257 melanoma) was 9.62 µM and the TGI (UACC-62 melanoma) was 21 µM.

Work on CC(C)=C1C(=O)c2c(Cl)sc(Cl)c2C1=O yielded a TGI (786-0 renal) of 74.9 µM, a TGI (A498 renal) greater than 100 µM and a TGI (A549 NSCLC) of 81.8 µM. The TGI (ACHN renal) was 40.8 µM, the TGI (BT-549 breast) was 42.9 µM and the TGI (CAKI-1 renal) was 32.7 µM. For the same compound, the TGI (CCRF-CEM leukemia) was greater than 100 µM, the TGI (COLO 205 colon) was 38.2 µM and the TGI (DU-145 prostate) was 62.1 µM. For the same compound, the TGI (EKVX NSCLC) was 81.1 µM, the TGI (HCT-116 colon) was 33 µM and the TGI (HCT-15 colon) was 43.3 µM. For the same compound, the TGI (HL-60(TB) leukemia) was 90.7 µM, the TGI (HOP-62 NSCLC) was greater than 100 µM and the TGI (HOP-92 NSCLC) was 45.5 µM. The TGI (HS 578T breast) was 80.2 µM, the TGI (HT29 colon) was 67.8 µM and the TGI (IGROV1 ovarian) was 46 µM. For the same compound, the TGI (K-562 leukemia) was greater than 100 µM, the TGI (KM12 colon) was 33.8 µM and the TGI (LOX IMVI melanoma) was 34.2 µM. It also gave a TGI (M14 melanoma) of 37.9 µM, a TGI (MALME-3M melanoma) of 44.5 µM and a TGI (MCF7 breast) greater than 100 µM. The TGI (MDA-MB-231 breast) was 57.4 µM, the TGI (MDA-MB-435) was 39 µM and the TGI (MDA-N) was 64 µM. It also gave a TGI (MOLT-4 leukemia) of 94.7 µM, a TGI (NCI-H226 lung) greater than 100 µM and a TGI (NCI-H23 lung) of 36.6 µM. The TGI (NCI-H460 lung) was greater than 100 µM, the TGI (NCI-H522 lung) was 32.6 µM and the TGI (NCI/ADR-RES ovarian) was 54.5 µM. It also gave a TGI (OVCAR-3 ovarian) of 75.1 µM, a TGI (OVCAR-4 ovarian) of 34.5 µM and a TGI (OVCAR-5 ovarian) greater than 100 µM. For the same compound, the TGI (OVCAR-8 ovarian) was 38.3 µM, the TGI (SF-268 CNS) was 79.5 µM and the TGI (SF-295 CNS) was greater than 100 µM. It also gave a TGI (SF-539 CNS) of 50.5 µM, a TGI (SK-MEL-2 melanoma) of 50.6 µM and a TGI (SK-MEL-28 melanoma) of 58.3 µM. For the same compound, the TGI (SK-MEL-5 melanoma) was greater than 100 µM, the TGI (SK-OV-3 ovarian) was greater than 100 µM and the TGI (SN12C renal) was 48 µM. It also gave a TGI (SNB-75 CNS) of 59.9 µM, a TGI (SR leukemia) greater than 100 µM and a TGI (SW-620 colon) of 70.5 µM. The TGI (T-47D breast) was 97.6 µM, the TGI (TK-10 renal) was 56.7 µM and the TGI (U251 CNS) was 46.3 µM. It also gave a TGI (UACC-257 melanoma) of 43 µM, a TGI (UACC-62 melanoma) of 38.3 µM and a TGI (UO-31 renal) of 60.4 µM.
